ChEMBL document CHEMBL4265943, “Design and synthesis of potent dual inhibitors of JAK2 and HDAC based on fusing the pharmacophores of XL019 and vorinostat” (Eur J Med Chem, 2018)

Target: Tyrosine-protein kinase JAK2 (Homo sapiens, UniProt O60674)
Assay: Inhibition of human JAK2 using poly(Glu:Tyr)(4:1) as substrate preincubated for 20 mins followed by [gamma33P]ATP addition measured after 120 mins by ion exchange filter paper method
Conditions: not given

Sequence of Tyrosine-protein kinase JAK2 (O60674 whole entry): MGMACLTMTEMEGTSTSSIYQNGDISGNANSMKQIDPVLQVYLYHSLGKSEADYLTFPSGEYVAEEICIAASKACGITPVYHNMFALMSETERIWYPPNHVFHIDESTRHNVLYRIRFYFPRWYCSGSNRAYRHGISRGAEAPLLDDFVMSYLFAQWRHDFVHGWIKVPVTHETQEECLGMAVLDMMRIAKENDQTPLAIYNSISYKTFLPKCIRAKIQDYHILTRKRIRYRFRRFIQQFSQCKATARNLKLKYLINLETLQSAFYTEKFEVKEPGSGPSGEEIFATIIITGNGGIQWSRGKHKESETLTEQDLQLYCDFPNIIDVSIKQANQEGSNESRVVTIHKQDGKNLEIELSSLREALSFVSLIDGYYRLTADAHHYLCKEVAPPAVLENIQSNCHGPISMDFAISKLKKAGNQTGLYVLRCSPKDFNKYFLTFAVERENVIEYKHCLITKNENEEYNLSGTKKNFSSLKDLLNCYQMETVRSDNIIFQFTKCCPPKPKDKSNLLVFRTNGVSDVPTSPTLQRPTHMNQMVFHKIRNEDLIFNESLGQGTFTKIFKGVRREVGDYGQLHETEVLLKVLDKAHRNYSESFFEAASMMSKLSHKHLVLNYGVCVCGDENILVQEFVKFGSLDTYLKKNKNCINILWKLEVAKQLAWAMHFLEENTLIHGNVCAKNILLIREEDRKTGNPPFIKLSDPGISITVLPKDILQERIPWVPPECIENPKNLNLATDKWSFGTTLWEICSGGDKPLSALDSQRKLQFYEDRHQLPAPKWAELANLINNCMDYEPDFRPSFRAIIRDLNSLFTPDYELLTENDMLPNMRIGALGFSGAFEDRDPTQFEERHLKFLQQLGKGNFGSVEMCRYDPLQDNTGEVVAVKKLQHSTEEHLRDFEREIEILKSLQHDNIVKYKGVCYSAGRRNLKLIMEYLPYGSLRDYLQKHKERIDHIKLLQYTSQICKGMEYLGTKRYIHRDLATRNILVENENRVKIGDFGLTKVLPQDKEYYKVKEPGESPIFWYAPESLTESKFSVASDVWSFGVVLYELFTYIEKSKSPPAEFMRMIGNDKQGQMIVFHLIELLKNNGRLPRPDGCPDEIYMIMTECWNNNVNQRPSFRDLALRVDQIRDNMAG

IC50 [µM] | SMILES
0.00293 | CC(=O)Nc1ccc(-c2nc(Nc3cccc(OCCCCCCCC(=O)NO)c3)ncc2C)cc1

Target: Histone deacetylase 1 (Homo sapiens, UniProt Q13547)
Sequence (Q13547 whole entry): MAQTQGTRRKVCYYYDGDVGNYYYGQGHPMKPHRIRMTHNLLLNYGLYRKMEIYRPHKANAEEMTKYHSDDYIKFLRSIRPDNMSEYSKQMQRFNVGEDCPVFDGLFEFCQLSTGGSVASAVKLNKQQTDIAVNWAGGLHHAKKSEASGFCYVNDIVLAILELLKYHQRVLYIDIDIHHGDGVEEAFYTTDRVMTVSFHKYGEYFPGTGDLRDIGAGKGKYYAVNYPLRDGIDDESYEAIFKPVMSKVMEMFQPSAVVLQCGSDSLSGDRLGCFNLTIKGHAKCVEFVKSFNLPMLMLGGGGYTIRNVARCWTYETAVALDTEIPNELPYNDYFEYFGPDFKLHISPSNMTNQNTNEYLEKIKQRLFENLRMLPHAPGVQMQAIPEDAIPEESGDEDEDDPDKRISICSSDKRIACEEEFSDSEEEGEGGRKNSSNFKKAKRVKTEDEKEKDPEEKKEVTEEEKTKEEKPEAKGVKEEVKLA
Assay: Inhibition of HDAC1 (unknown origin) using Arg-His-Lys-Lys(Ac) as substrate preincubated with enzyme followed by substrate addition for 2 hrs and measured for 1.5 hrs at 15 mins time interval by fluorescence assay
Conditions: not given

IC50 [µM] | SMILES
4.58 | CC(=O)Nc1ccc(-c2nc(Nc3cccc(OCCCCCCCC(=O)NO)c3)ncc2C)cc1

Target: T1, Protein deacetylase HDAC6 (Homo sapiens, UniProt Q9UBN7)
T1 sequence (Q9UBN7 whole entry): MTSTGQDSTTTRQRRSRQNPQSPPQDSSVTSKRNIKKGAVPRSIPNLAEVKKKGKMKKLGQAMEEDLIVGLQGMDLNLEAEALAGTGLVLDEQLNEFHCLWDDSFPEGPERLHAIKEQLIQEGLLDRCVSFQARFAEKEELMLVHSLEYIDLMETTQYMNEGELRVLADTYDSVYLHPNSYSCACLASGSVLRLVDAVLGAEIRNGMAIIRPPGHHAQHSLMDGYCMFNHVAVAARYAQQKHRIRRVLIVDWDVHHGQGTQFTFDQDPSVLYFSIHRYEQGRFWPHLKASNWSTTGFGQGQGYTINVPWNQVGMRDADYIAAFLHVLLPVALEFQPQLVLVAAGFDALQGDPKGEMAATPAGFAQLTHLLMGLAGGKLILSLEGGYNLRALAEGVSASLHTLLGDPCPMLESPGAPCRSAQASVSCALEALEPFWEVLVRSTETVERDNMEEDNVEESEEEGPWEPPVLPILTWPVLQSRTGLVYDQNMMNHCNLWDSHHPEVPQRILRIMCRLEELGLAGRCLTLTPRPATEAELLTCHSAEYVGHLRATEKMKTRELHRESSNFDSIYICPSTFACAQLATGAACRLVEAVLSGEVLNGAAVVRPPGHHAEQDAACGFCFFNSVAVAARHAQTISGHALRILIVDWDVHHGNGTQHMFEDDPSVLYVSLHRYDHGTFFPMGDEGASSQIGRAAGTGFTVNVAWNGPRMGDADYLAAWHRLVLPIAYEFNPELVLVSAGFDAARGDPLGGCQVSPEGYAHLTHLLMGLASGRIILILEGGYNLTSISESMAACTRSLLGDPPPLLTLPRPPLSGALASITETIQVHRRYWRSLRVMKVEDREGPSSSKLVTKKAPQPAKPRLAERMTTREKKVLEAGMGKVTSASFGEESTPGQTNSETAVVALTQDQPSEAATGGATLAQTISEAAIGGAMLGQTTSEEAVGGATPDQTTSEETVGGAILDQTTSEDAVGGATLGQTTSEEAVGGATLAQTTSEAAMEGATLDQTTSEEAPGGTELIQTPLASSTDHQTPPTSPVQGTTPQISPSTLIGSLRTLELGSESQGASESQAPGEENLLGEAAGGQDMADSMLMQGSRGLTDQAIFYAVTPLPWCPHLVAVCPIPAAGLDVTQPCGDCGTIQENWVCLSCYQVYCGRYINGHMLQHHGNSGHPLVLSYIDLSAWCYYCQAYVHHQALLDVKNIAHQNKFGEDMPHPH
Assay: Inhibition of HDAC6 (unknown origin) using Arg-His-Lys-Lys(Ac) as substrate preincubated with enzyme followed by substrate addition for 2 hrs and measured for 1.5 hrs at 15 mins time interval by fluorescence assay
Conditions: not given

IC50 [µM] | SMILES
0.0097 | CC(=O)Nc1ccc(-c2nc(Nc3cccc(OCCCCCCCC(=O)NO)c3)ncc2C)cc1

System: HCT-116
Assay: Antiproliferative activity against human HCT116 cells after 72 hrs by MTT assay
Assay type: functional, cell-based
Conditions: HCT-116, 72 h

IC50 [µM] | SMILES
18.4 | CC(=O)Nc1ccc(-c2nc(Nc3cccc(OCCCCCCCC(=O)NO)c3)ncc2C)cc1

System: MDA-MB-231
Assay: Antiproliferative activity against human MDA-MB-231 cells after 72 hrs by MTT assay
Assay type: functional, cell-based
Conditions: MDA-MB-231, 72 h

IC50 [µM] | SMILES
11.4 | CC(=O)Nc1ccc(-c2nc(Nc3cccc(OCCCCCCCC(=O)NO)c3)ncc2C)cc1

System: MCF7
Assay: Antiproliferative activity against human MCF7 cells after 72 hrs by MTT assay
Assay type: functional, cell-based
Conditions: MCF7, 72 h

IC50 [µM] | SMILES
30.8 | CC(=O)Nc1ccc(-c2nc(Nc3cccc(OCCCCCCCC(=O)NO)c3)ncc2C)cc1

System: PC-3
Assay: Antiproliferative activity against human PC3 cells after 72 hrs by MTT assay
Assay type: functional, cell-based
Conditions: PC-3, 72 h

IC50 [µM] | SMILES
32.8 | CC(=O)Nc1ccc(-c2nc(Nc3cccc(OCCCCCCCC(=O)NO)c3)ncc2C)cc1

System: not listed separately
Assay: Antiproliferative activity against human AC10 cells after 72 hrs by MTT assay
Assay type: cell-based
Conditions: not given

SMILES | CC50 at 72 h [µM]
CC(=O)Nc1ccc(-c2nc(Nc3cccc(OCCCCCCCC(=O)NO)c3)ncc2C)cc1 | 20.1 to 20.7

System: not listed separately
Assay: Antiproliferative activity against mouse TAMH cells after 72 hrs by MTT assay
Assay type: cell-based
Conditions: not given

SMILES | CC50 at 72 h [µM]
CC(=O)Nc1ccc(-c2nc(Nc3cccc(OCCCCCCCC(=O)NO)c3)ncc2C)cc1 | 9.14

System: not listed separately
Assay: Selectivity index, ratio of CC50 for human AC10 cells to IC50 for human HCT116 cells
Assay type: toxicity
Conditions: AC10 cells (CC50) and HCT116 cells (IC50)

SMILES | selectivity ratio
CC(=O)Nc1ccc(-c2nc(Nc3cccc(OCCCCCCCC(=O)NO)c3)ncc2C)cc1 | 1.12

System: not listed separately
Assay: Selectivity index, ratio of CC50 for mouse TAMH cells to IC50 for human HCT116 cells
Assay type: toxicity
Conditions: TAMH cells (CC50) and HCT116 cells (IC50)

SMILES | selectivity ratio
CC(=O)Nc1ccc(-c2nc(Nc3cccc(OCCCCCCCC(=O)NO)c3)ncc2C)cc1 | 0.5

System: not listed separately
Assay: Selectivity index, ratio of CC50 for human AC10 cells to IC50 for human MDA-MB-231 cells
Assay type: toxicity
Conditions: AC10 cells (CC50) and MDA-MB-231 cells (IC50)

SMILES | selectivity ratio
CC(=O)Nc1ccc(-c2nc(Nc3cccc(OCCCCCCCC(=O)NO)c3)ncc2C)cc1 | 1.81

System: not listed separately
Assay: Selectivity index, ratio of CC50 for mouse TAMH cells to IC50 for human MDA-MB-231 cells
Assay type: toxicity
Conditions: TAMH cells (CC50) and MDA-MB-231 cells (IC50)

SMILES | selectivity ratio
CC(=O)Nc1ccc(-c2nc(Nc3cccc(OCCCCCCCC(=O)NO)c3)ncc2C)cc1 | 0.8

System: not listed separately
Assay: Selectivity index, ratio of CC50 for human AC10 cells to IC50 for human MCF7 cells
Assay type: toxicity
Conditions: AC10 cells (CC50) and MCF7 cells (IC50)

SMILES | selectivity ratio
CC(=O)Nc1ccc(-c2nc(Nc3cccc(OCCCCCCCC(=O)NO)c3)ncc2C)cc1 | 0.67

System: not listed separately
Assay: Selectivity index, ratio of CC50 for mouse TAMH cells to IC50 for human MCF7 cells
Assay type: toxicity
Conditions: TAMH cells (CC50) and MCF7 cells (IC50)

SMILES | selectivity ratio
CC(=O)Nc1ccc(-c2nc(Nc3cccc(OCCCCCCCC(=O)NO)c3)ncc2C)cc1 | 0.3

System: not listed separately
Assay: Selectivity index, ratio of CC50 for human AC10 cells to IC50 for human PC3 cells
Assay type: toxicity
Conditions: AC10 cells (CC50) and PC3 cells (IC50)

SMILES | selectivity ratio
CC(=O)Nc1ccc(-c2nc(Nc3cccc(OCCCCCCCC(=O)NO)c3)ncc2C)cc1 | 0.63

System: not listed separately
Assay: Selectivity index, ratio of CC50 for mouse TAMH cells to IC50 for human PC3 cells
Assay type: toxicity
Conditions: TAMH cells (CC50) and PC3 cells (IC50)

SMILES | selectivity ratio
CC(=O)Nc1ccc(-c2nc(Nc3cccc(OCCCCCCCC(=O)NO)c3)ncc2C)cc1 | 0.28

System: HEL 92.1.7
Assay: cells
Assay type: functional, cell-based
Conditions: Homo sapiens, HEL 92.1.7, 72 h
Description: Antiproliferative activity against human HEL 92.1.7 cells after 72 hrs by MTT assay

IC50 [µM] | SMILES
8.96 | CC(=O)Nc1ccc(-c2nc(Nc3cccc(OCCCCCCCC(=O)NO)c3)ncc2C)cc1

System: Jurkat
Assay: Antiproliferative activity against human Jurkat cells after 72 hrs by MTT assay
Assay type: functional, cell-based
Conditions: not given

IC50 [µM] | SMILES
9.99 | CC(=O)Nc1ccc(-c2nc(Nc3cccc(OCCCCCCCC(=O)NO)c3)ncc2C)cc1

System: KMS-12-BM
Assay: Antiproliferative activity against human KMS-12-BM cells after 72 hrs by MTT assay
Assay type: functional, cell-based
Conditions: not given

SMILES | IC50 [µM]
CC(=O)Nc1ccc(-c2nc(Nc3cccc(OCCCCCCCC(=O)NO)c3)ncc2C)cc1 | 0.54

System: not listed separately
Assay: Antiproliferative activity against human XG6 cells after 72 hrs by MTT assay
Assay type: functional, cell-based
Conditions: XG6, 72 h

SMILES | IC50 [µM]
CC(=O)Nc1ccc(-c2nc(Nc3cccc(OCCCCCCCC(=O)NO)c3)ncc2C)cc1 | 8.3

System: not listed separately
Assay: Selectivity index, ratio of CC50 for human AC10 cells to IC50 for human HEL 92.1.7 cells
Assay type: toxicity
Conditions: AC10 cells (CC50) and HEL 92.1.7 cells (IC50)

SMILES | selectivity ratio
CC(=O)Nc1ccc(-c2nc(Nc3cccc(OCCCCCCCC(=O)NO)c3)ncc2C)cc1 | 2.31

System: not listed separately
Assay: Selectivity index, ratio of CC50 for mouse TAMH cells to IC50 for human HEL 92.1.7 cells
Assay type: toxicity
Conditions: TAMH cells (CC50) and HEL 92.1.7 cells (IC50)

SMILES | selectivity ratio
CC(=O)Nc1ccc(-c2nc(Nc3cccc(OCCCCCCCC(=O)NO)c3)ncc2C)cc1 | 1.02

System: not listed separately
Assay: Selectivity index, ratio of CC50 for human AC10 cells to IC50 for human Jurkat cells
Assay type: toxicity
Conditions: AC10 cells (CC50) and Jurkat cells (IC50)

SMILES | selectivity ratio
CC(=O)Nc1ccc(-c2nc(Nc3cccc(OCCCCCCCC(=O)NO)c3)ncc2C)cc1 | 0.23

System: not listed separately
Assay: Selectivity index, ratio of CC50 for mouse TAMH cells to IC50 for human Jurkat cells
Assay type: toxicity
Conditions: TAMH cells (CC50) and Jurkat cells (IC50)

SMILES | selectivity ratio
CC(=O)Nc1ccc(-c2nc(Nc3cccc(OCCCCCCCC(=O)NO)c3)ncc2C)cc1 | 0.91

System: not listed separately
Assay: Selectivity index, ratio of CC50 for human AC10 cells to IC50 for human KMS-12-BM cells
Assay type: toxicity
Conditions: AC10 cells (CC50) and KMS-12-BM cells (IC50)

SMILES | selectivity ratio
CC(=O)Nc1ccc(-c2nc(Nc3cccc(OCCCCCCCC(=O)NO)c3)ncc2C)cc1 | 38.3

System: not listed separately
Assay: Selectivity index, ratio of CC50 for mouse TAMH cells to IC50 for human KMS-12-BM cells
Assay type: toxicity
Conditions: TAMH cells (CC50) and KMS-12-BM cells (IC50)

SMILES | selectivity ratio
CC(=O)Nc1ccc(-c2nc(Nc3cccc(OCCCCCCCC(=O)NO)c3)ncc2C)cc1 | 17

System: not listed separately
Assay: Selectivity index, ratio of CC50 for human AC10 cells to IC50 for human XG6 cells
Assay type: toxicity
Conditions: AC10 cells (CC50) and XG6 cells (IC50)

SMILES | selectivity ratio
CC(=O)Nc1ccc(-c2nc(Nc3cccc(OCCCCCCCC(=O)NO)c3)ncc2C)cc1 | 2.49

System: not listed separately
Assay: Selectivity index, ratio of CC50 for mouse TAMH cells to IC50 for human XG6 cells
Assay type: toxicity
Conditions: TAMH cells (CC50) and XG6 cells (IC50)

SMILES | selectivity ratio
CC(=O)Nc1ccc(-c2nc(Nc3cccc(OCCCCCCCC(=O)NO)c3)ncc2C)cc1 | 1.1
